# Activity calls are given as the source filed them.
# Assays:
# Estrogen receptor beta [1] = biological target: T1, Estrogen receptor beta (Homo sapiens, UniProt Q92731); assay: blockers of SRC-3 recruitment to ERβ – biochemical, ELISA, streptavidin-HRP readout, orthogonal assay, confirmation (AID 1060)
# Estrogen receptor beta [2] = biological target: T1, Estrogen receptor beta
# Transthyretin = Transthyretin (Homo sapiens, UniProt P02766); assay: Luminescence-based cell-based high throughput dose response assay to identify activators of Transthyretin (TTR) transcription.; format: functional
# Protein skinhead-1 = biological target: T2, Protein skinhead-1 (Caenorhabditis elegans, UniProt P34707); format: functional
# T2 sequence (P34707 whole entry): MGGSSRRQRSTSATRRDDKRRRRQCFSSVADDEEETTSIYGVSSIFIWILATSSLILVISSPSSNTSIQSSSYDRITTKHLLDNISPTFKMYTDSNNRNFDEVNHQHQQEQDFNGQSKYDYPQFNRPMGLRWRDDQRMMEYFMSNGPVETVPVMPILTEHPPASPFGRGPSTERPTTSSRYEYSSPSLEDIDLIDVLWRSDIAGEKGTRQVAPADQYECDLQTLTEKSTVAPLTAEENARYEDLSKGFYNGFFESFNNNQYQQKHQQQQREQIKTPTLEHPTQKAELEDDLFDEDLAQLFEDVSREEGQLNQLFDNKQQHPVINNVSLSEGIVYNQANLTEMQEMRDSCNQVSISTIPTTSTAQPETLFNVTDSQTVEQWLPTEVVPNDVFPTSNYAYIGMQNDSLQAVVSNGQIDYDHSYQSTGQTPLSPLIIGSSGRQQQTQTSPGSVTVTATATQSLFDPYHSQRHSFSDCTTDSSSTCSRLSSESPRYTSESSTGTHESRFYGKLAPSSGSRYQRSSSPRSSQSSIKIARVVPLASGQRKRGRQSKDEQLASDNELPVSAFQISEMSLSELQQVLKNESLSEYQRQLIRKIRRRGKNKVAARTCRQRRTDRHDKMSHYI
# [3] = Luminescence Cell-Based Dose Retest to Confirm Inhibitors of Cancer Stem Cells. [Related pubchem assays (depositor defined):AID2717, AID2721]; format: functional; details: Homo sapiens
# [4] = viability inhibitors of stage V gametocytes – luminescence, dose response (AID 1117278); format: functional, cell-based;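 also: gametocytes exposed to compound for 24 hours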
# [5] = viability loss in human Jurkat cells – cell-based, luminescence, cytotoxicity control for P. falciparum gametocyte viability project, dose response (AID 1117277); format: functional;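 also: potency reflects loss of cellular ATP meaning fewer viable cells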
# Leucine aminopeptidase = biological target: T3, Leucine aminopeptidase (Plasmodium falciparum 3D7, UniProt Q8IL11); assay: P. falciparum M17LAP inhibitors, primary screen, biochemical, fluorogenic H-Leu-NHMec substrate, 1536-well (AID 1619); format: functional
# T3 sequence (Q8IL11 whole entry): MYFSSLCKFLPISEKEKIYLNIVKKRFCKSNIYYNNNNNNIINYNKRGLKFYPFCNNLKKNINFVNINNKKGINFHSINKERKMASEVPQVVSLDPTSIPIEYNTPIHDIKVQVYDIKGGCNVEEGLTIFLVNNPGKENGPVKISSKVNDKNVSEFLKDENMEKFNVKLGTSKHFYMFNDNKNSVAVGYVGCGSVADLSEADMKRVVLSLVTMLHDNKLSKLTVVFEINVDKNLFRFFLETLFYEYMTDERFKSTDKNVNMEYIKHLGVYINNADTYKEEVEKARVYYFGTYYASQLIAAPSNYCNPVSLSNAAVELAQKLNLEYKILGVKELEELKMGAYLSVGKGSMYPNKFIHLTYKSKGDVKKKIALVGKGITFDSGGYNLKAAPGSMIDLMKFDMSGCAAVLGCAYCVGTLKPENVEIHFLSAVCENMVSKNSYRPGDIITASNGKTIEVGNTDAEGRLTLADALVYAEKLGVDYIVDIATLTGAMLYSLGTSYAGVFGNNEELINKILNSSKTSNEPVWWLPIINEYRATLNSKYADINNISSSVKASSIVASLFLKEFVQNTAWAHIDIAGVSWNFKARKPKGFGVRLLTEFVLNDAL
# [6] = biological target: T4, Replicative DNA helicase DnaB (Mycobacterium tuberculosis, UniProt P9WMR3); assay: DnaB intein splicing inhibitors, dose response, biochemical, cell-free fluorescence (AID 449749); format: functional
# T4 sequence (P9WMR3 whole entry): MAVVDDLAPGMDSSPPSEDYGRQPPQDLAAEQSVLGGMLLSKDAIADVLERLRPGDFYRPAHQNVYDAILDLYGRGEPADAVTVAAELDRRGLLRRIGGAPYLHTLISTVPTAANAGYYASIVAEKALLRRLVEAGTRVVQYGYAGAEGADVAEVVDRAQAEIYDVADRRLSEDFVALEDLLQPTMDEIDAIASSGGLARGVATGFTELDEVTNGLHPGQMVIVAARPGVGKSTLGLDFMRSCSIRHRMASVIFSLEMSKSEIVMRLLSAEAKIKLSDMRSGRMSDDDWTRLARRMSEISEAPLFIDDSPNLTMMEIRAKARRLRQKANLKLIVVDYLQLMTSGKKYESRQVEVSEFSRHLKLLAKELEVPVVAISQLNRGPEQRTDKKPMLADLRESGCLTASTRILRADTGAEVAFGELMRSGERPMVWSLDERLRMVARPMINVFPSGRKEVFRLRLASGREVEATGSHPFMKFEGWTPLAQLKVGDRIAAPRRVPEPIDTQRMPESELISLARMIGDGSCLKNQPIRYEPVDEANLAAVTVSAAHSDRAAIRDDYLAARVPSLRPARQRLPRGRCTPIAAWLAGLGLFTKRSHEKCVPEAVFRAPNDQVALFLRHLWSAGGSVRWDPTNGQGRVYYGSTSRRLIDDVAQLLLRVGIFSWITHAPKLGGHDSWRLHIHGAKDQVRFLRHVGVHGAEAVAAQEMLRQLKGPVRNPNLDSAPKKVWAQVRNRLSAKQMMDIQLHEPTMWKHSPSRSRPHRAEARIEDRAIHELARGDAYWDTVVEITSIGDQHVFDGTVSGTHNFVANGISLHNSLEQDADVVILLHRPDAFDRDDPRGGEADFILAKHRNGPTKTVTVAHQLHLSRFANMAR
# Protein RecA = biological target: T5, Protein RecA (Mycobacterium tuberculosis, UniProt P9WHJ3); assay: Fluorescence Cell-Free Homogeneous Dose Retest to Identify Inhibitors of RecA-Intein Splicing Activity. [Related pubchem assays (depositor defined):AID2097, AID2223, AID489010, AID492950]; format: functional
# T5 sequence (P9WHJ3 whole entry): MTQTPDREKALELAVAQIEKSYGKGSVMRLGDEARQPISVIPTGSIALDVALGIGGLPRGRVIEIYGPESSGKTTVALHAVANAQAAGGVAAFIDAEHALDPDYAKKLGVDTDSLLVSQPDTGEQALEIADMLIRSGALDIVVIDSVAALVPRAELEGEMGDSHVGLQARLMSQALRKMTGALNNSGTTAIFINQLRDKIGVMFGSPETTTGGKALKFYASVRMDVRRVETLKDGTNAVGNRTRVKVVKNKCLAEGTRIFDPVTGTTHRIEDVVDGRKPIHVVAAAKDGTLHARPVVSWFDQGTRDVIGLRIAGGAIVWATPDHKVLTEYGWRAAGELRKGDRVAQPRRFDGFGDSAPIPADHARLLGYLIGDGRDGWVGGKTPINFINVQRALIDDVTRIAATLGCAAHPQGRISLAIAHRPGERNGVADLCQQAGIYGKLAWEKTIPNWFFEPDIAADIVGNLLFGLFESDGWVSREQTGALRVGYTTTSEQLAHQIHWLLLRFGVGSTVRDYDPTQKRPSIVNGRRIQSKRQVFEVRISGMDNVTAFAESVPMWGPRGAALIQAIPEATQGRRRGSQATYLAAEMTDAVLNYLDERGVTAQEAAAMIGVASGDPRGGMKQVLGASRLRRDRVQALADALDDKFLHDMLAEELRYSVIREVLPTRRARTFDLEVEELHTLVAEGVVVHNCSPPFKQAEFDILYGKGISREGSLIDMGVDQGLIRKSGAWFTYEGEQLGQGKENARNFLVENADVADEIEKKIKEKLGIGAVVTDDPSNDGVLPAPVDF
# Estrogen receptor = biological target: T6, Estrogen receptor (Homo sapiens, UniProt P03372); assay: ERα coactivator recruitment enhancers – biochemical, TR-FRET, ERα LBD, dose response (AID 737)
# T6 sequence (P03372 whole entry): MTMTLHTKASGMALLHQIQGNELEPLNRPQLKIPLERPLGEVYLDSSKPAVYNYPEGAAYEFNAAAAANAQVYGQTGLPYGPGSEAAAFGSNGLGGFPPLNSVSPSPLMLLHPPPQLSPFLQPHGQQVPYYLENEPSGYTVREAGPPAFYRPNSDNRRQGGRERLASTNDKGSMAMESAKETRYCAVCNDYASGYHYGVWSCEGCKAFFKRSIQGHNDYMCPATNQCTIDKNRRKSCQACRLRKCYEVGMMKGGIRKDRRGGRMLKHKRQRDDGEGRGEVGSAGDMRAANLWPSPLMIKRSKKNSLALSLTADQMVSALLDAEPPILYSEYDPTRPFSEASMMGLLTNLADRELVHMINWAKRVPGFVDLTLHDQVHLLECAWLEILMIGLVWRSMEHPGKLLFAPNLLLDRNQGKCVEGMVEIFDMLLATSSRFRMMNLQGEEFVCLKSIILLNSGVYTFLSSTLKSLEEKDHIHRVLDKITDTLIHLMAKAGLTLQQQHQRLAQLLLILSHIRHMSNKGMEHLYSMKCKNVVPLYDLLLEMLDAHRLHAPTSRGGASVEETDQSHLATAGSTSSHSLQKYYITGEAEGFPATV
# HT-1080 = assay: HT1080 cell viability loss – fluorescence readout (AID 620); format: functional, cell-based; details: Homo sapiens
# [7] = biological target: ADP-ribosylation factor GTPase-activating protein 1 (Rattus norvegicus, UniProt Q62848); assay: Fluorescence polarization-based biochemical high throughput dose response screening assay to identify inhibitors of ADP-ribosylation factor GTPase activating protein 1 (ARFGAP1).; format: functional
# Chain of ADP-ribosylation factor GTPase-activating protein 1 (Q62848 whole entry, the tested form may be a part): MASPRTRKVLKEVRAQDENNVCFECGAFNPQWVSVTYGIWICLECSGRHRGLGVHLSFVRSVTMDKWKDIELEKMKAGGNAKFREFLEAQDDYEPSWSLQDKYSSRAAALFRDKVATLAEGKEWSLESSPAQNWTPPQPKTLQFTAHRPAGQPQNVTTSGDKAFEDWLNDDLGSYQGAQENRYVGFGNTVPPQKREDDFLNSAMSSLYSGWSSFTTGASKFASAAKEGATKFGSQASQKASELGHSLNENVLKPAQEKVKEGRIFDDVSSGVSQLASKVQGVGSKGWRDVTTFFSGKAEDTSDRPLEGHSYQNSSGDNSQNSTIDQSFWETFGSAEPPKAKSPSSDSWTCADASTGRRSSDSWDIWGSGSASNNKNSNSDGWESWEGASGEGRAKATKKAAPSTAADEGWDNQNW
# [8] = biological target: Arf-GAP with SH3 domain, ANK repeat and PH domain-containing protein 1 (Homo sapiens, UniProt Q9ULH1); format: functional;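 also: biochemical fluorescence polarization dose–response screen measuring inhibition of ASAP1; ASAP1 GAP domain stimulating GTP hydrolysis by truncated human ARF1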
# Chain of Arf-GAP with SH3 domain, ANK repeat and PH domain-containing protein 1 (Q9ULH1 whole entry, the tested form may be a part): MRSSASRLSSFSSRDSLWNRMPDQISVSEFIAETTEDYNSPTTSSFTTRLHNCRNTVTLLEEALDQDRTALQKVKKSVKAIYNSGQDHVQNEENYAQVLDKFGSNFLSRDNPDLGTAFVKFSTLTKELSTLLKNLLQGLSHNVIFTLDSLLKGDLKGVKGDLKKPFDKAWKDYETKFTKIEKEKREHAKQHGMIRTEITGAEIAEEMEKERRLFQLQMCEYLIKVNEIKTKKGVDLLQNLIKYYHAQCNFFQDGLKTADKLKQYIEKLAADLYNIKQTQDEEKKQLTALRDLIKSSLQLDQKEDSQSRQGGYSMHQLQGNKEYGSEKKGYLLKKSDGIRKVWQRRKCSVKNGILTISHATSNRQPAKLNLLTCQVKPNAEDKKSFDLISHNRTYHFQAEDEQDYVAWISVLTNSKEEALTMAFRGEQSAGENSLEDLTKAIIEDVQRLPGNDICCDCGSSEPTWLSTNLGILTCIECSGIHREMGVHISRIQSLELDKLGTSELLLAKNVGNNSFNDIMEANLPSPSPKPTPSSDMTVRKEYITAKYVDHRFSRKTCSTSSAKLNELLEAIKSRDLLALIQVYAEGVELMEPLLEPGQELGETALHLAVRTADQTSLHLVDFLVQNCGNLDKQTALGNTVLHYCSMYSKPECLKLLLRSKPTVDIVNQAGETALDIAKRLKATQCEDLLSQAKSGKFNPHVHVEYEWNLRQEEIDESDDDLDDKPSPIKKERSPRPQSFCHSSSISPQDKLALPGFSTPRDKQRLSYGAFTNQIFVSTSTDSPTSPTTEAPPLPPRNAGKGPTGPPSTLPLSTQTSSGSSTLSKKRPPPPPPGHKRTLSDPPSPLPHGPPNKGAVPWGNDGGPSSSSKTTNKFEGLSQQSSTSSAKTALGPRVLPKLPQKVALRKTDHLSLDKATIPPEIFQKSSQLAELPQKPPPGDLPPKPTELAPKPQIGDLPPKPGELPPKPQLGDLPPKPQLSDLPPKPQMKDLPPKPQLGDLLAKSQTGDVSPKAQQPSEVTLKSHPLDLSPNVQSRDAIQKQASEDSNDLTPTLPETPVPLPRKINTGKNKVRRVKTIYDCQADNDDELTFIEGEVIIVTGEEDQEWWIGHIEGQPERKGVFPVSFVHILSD
# T1 sequence (Q92731 whole entry): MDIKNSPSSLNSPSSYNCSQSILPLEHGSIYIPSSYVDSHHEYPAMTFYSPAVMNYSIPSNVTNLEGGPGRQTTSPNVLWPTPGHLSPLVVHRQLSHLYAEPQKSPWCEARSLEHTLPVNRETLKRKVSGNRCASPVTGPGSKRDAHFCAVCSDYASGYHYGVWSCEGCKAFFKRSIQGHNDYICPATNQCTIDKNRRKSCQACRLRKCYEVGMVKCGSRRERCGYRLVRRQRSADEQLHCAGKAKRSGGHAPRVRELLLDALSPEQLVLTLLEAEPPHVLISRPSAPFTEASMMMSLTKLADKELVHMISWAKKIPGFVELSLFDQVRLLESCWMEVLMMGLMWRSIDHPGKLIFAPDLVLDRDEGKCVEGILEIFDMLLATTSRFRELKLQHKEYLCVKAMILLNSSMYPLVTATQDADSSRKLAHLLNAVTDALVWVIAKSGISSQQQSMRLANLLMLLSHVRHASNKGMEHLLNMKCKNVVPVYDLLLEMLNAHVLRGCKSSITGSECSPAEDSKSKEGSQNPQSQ
compound,measurement,setting,value
CCOC(=O)c1c(C)[nH]c(C)c1C(=O)COC(=O)CCOc1ccccc1OC,IC50,Estrogen receptor beta [1],> 109 µM (not active)
same,IC50,Estrogen receptor beta [2],35.3 µM (not active)
O=[N+]([O-])c1cccc(-c2noc(-c3ccco3)n2)c1,EC50,Transthyretin,> 167 µM (inactive)
same,IC50,Protein skinhead-1,> 100 µM (inactive)
Cc1ccc(C(=O)NC2c3ccccc3-c3ccccc32)cc1,AC50,[3],0.448 µM (active)
same,IC50,[4],> 109 µM (inactive)
same,IC50,[5],> 1.03 µM (active)
CCOc1ccccc1C1C(C#N)=C(N)Nc2onc(-c3ccccc3)c21 (centres undefined),IC50,Leucine aminopeptidase,52.7 µM (active)
same,AC50,[6],2.47 µM (active)
same,EC50,Protein RecA,1.39 µM (active)
same,EC50,Estrogen receptor,17.5 µM (active)
Cc1cc(C(=O)COC(=O)c2[nH]nc3ccccc23)c(C)n1C,EC50,HT-1080,> 50 µM (not active)
same,IC50,[7],32.4 µM (inactive)
same,IC50,[8],37.6 µM (inactive)
